Measured values taken from ChEMBL document CHEMBL4602613, “Early identification of promiscuous attributes of aldose reductase inhibitors using a DMSO-perturbation assay” (Bioorg Med Chem Lett, 2020).
pIC50: −log10 of the molar value.

Experiments:
[1] = target: T1, Aldo-keto reductase family 1 member B1 (Homo sapiens, UniProt P15121); test: Inhibition of human recombinant AKR1B1 assessed as D,L-glyceraldehyde reduction at 100 uM incubated in sodium phosphate buffer at pH 6.2 in presence of NADPH relative to control
[2] = target: T1, Aldo-keto reductase family 1 member B1; test: Inhibition of human recombinant AKR1B1 assessed as D,L-glyceraldehyde reduction incubated in sodium phosphate buffer at pH 6.2 in presence of NADPH; conditions: for pIC50: read-out: IC50
[3] = target: T1, Aldo-keto reductase family 1 member B1; test: Aggregation-based inhibition of human recombinant AKR1B1 assessed as D,L-glyceraldehyde reduction incubated in sodium phosphate buffer at pH 6.2 in presence of NADPH and 0.05% Triton X-100 by detergent-addition assay
[4] = target: T1, Aldo-keto reductase family 1 member B1; test: Inhibition of human recombinant AKR1B1 assessed as D,L-glyceraldehyde reduction pretreated with 0.3M DMSO followed by compound addition by DMSO-perturbation assay
[5] = target: T1, Aldo-keto reductase family 1 member B1; test: Inhibition of human recombinant AKR1B1 assessed as D,L-glyceraldehyde reduction pretreated with 0.7M DMSO followed by compound addition by DMSO-perturbation assay
[6] = target: T1, Aldo-keto reductase family 1 member B1; test: Ratio of IC50 for human recombinant AKR1B1 in presence of 0.7M DMSO to IC50 for human recombinant AKR1B1 in presence of 0.3M DMSO by DMSO-perturbation assay
[7] = target: T2, Aldo-keto reductase family 1 member B10 (Homo sapiens, UniProt O60218); test: Inhibition of AKR1B10 (unknown origin) pretreated with 0.25M DMSO followed by compound treatment by DMSO-perturbation assay
T2 sequence (O60218 whole entry): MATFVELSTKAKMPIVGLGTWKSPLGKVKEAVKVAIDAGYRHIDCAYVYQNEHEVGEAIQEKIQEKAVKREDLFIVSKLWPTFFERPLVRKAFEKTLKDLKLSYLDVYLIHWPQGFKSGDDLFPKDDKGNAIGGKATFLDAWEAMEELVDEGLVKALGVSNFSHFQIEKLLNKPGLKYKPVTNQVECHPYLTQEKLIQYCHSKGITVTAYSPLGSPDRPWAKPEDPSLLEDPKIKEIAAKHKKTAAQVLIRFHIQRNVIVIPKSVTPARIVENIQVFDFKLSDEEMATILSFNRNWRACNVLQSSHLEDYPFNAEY

[8] = target: T2, Aldo-keto reductase family 1 member B10; test: Inhibition of AKR1B10 (unknown origin) pretreated with 0.42M DMSO followed by compound treatment by DMSO-perturbation assay
[9] = target: T1, Aldo-keto reductase family 1 member B1; test: Aggregation-based inhibition of human recombinant AKR1B1 assessed as D,L-glyceraldehyde reduction at 300 uM incubated in sodium phosphate buffer at pH 6.2 in presence of NADPH and 0.05% Triton X-100 by detergent-addition assay

Row | inhibition [1] | pIC50 [2] | pIC50 [3] | Compound | further results
1 | 3% |  |  | CC(=O)CC[C@@H]1[C@H]2CC(=C(C)C)C(=O)C[C@@]12C | 
2 | 56% | 4.18 | 4.14 | Cn1cnc2c1c(=O)n(CCCCC1(C)NC(=O)NC1=O)c(=O)n2C (stereo not given) | pIC50 [4]: 4.18; pIC50 [5]: 3.75; Ratio IC50 [6]: 2.7
3 | 31% | 3.53 | 3.36 | COc1ccc(C2(C)NC(=O)NC2=O)c(O)c1 (stereo not given) | 
4 | 39% | 3.80 | 3.50 | CC1(CCc2ccccc2)NC(=O)NC1=O (stereo not given) | 
5 | 56% | 4.10 | 3.94 | O=C1NC(=O)C2(CCCc3ccccc32)N1 (stereo not given) | 
6 |  |  |  | CC(/C=C1\SC(=S)N(CC(=O)O)C1=O)=C\c1ccccc1 | pIC50 [7]: 7.45; pIC50 [8]: 7.41
7 | 30% | 3.54 | 3.34 | CC(C)=C1C[C@@H]2[C@@H](CCC3(C)NC(=O)NC3=O)[C@]2(C)CC1=O (stereo not given in full) | 
8 | 2% |  |  | COc1ccc(C(C)=O)c(O)c1 | 
9 | 19% |  |  | CCCC1NC(=O)NC1=O (stereo not given) | 
10 | 4% |  |  | CCCCC[C@H](O)CC(=O)CCc1ccc(O)c(OC)c1 [GINGEROL] | IC50 [2]: Not Active
11 | 12% |  |  | COc1ccc2c(c1)OC(=O)NC2(C)C(N)=O (stereo not given) | 
12 | 34% |  |  | O=C1NC(=O)C(c2ccccc2)N1 (stereo not given) | 
13 | 45% | 3.90 |  | CCCCCCCCC[C@H](O)CC(=O)CCc1ccc(O)c(OC)c1 | inhibition [9]: < 50%
14 | 71% | 4.39 | 4.32 | O=C1NC(=O)C(c2ccccc2)(c2ccc(O)cc2)N1 (stereo not given) | pIC50 [4]: 4.39; pIC50 [5]: 4.19
